Experimental data published in patent US11746087B1, “C4-carboxylic acid-substituted tryptamine derivatives and methods of using” (priority 2022, dated 2023).
Where “and” joins values, the source holds several entries; their conditions need not be identical. Equal entries are not always repeated. Where two headings read alike, the source gives them in different places.

Legend:
[1] = target: T1, 5-HT1A receptor (Homo sapiens, UniProt P08908); assay: cAMP-Glo assay in +5-HT1A vs −5-HT1A CHO-K1 cells; format: cell-based; details: cAMP assay with 4 mM forskolin
T1 construct: host or cells: CHO-K1 (co-expressing Ga15)
T1 sequence (P08908 1-422): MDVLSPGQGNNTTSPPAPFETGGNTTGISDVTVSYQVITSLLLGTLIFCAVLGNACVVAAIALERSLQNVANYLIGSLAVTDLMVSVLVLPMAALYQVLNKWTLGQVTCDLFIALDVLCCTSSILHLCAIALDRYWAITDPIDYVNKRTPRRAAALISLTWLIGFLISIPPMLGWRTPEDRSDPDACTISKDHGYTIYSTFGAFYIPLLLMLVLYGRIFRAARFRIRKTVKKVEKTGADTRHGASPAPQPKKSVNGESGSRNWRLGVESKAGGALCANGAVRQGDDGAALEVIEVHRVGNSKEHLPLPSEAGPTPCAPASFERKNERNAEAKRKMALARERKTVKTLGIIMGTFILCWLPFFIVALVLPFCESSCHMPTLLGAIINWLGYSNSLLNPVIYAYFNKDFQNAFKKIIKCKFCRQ

[2] = Mouse PK study (IV and PO), plasma parent compound and psilocin by LC-MS/MS; format: in vivo; details: for Plasma concentration of psilocin: BLQ = below 0.5 ng/mL; for F: C(XX); for concentration at 5 min / concentration at 0.25 h / concentration at 0.5 h / concentration at 1 h / concentration at 2 h / concentration at 4 h: intravenous, read-out: Plasma concentration of C(XX)
Source text: Briefly, the procedure was as follows. […] 19, 2022.

[3] = 10 mg/kg oral C(XX), individual animals
[4] = C(XX) in plasma, 1 mg/kg i.v. C(XX), Mean ± SD
[5] = C(XX) in plasma, 1 mg/kg i.v. C(XX), per animal, 1 mg/kg
[6] = C(XX) in plasma, 1 mg/kg oral C(XX), per animal, 1 mg/kg
[7] = C(XX) in plasma, 3 mg/kg oral C(XX), Mean ± SD
[8] = C(XX) in plasma, 3 mg/kg oral C(XX), per animal, 3 mg/kg
[9] = male, C57Bl/6, mouse, plasma, 1 mg/kg, 1 mg/kg i.v. C(XX), Mean ± SD
[10] = male, C57Bl/6, mouse, plasma, 1 mg/kg, 1 mg/kg i.v. C(XX), per animal, BLQ <0.25 ng/mL

For `CN(C)CCc1c[nH]c2cccc(OC(=O)c3cccc4c3OCCO4)c12` [C(XX)], the “5-HT1A receptor modulation, +5-HT1A vs −5-HT1A cultures” value [1] was “significant receptor modulation”, the “Plasma concentration of C(XX)” value ([2]; 1 mg/kg i.v. C(XX), 6 h, per animal, BLQ <0.25 ng/mL) was “BLQ” and the “Plasma concentration of psilocin” value ([2]; 1 mg/kg i.v. C(XX), 8 h, individual animals) was “BLQ”. For the same molecule, the “Plasma concentration of C(XX)” value ([2]; 1 mg/kg i.v. C(XX), 8 h, per animal, BLQ <0.25 ng/mL) was “BLQ and No (2×)”, the “AUC0-tlast/Dose of C(XX) in plasma” value ([2]; 1 mg/kg i.v. C(XX), mean ± SD) was 52.8 ± 8.30 kg·ng·h/mL/mg and the “Plasma concentration of C(XX)” value ([2]; 1 mg/kg oral C(XX), 2 h, per animal, BLQ <0.25 ng/mL) was “BLQ”. For the same molecule, the “Plasma concentration of C(XX)” value ([2]; 1 mg/kg oral C(XX), 4 h, per animal, BLQ <0.25 ng/mL) was “BLQ”, the “Plasma concentration of C(XX)” value ([2]; 1 mg/kg oral C(XX), 6 h, per animal, BLQ <0.25 ng/mL) was “No Peak (2×) and BLQ” and the “Plasma concentration of C(XX)” value ([2]; 1 mg/kg oral C(XX), 8 h, per animal, BLQ <0.25 ng/mL) was “No Peak (2×) and BLQ”. For the same molecule, the “Plasma concentration of psilocin” value ([2]; 1 mg/kg oral C(XX), 24 h, individual animals) was “BLQ”, the “Plasma concentration of C(XX)” value ([2]; 1 mg/kg oral C(XX), 24 h, per animal, BLQ <0.25 ng/mL) was “No Peak” and the “Cmax/Dose of C(XX) in plasma” value ([2]; 1 mg/kg p.o. C(XX), mean ± SD) was 0.620 kg·ng/mL/mg. The “Plasma concentration of C(XX)” value ([2]; 3 mg/kg oral C(XX), 4 h, per animal, BLQ <0.25 ng/mL) was “No Peak (2×) and BLQ”, the “Plasma concentration of C(XX)” value ([2]; 3 mg/kg oral C(XX), 6 h, per animal, BLQ <0.25 ng/mL) was “No Peak and BLQ (2×)” and the “Plasma concentration of C(XX)” value ([2]; 3 mg/kg oral C(XX), 8 h, per animal, BLQ <0.25 ng/mL) was “No Peak and BLQ (2×)”. The “Plasma concentration of psilocin” value ([2]; 3 mg/kg oral C(XX), 24 h, individual animals) was “BLQ”, the “Plasma concentration of C(XX)” value ([2]; 3 mg/kg oral C(XX), 24 h, per animal, BLQ <0.25 ng/mL) was “No Peak” and the “AUC0-tlast/Dose of C(XX) in plasma” value ([2]; 3 mg/kg p.o. C(XX), mean ± SD) was 0.458 kg·ng·h/mL/mg. The “Cmax/Dose of C(XX) in plasma” value ([2]; 3 mg/kg p.o. C(XX), mean ± SD) was 0.571 kg·ng/mL/mg, the “F(%) of C(XX)” value ([2]; 3 mg/kg p.o. C(XX), mean ± SD) was 0.953% and the “Plasma concentration of C(XX)” value ([2]; 10 mg/kg oral C(XX), 4 h, per animal, BLQ <0.25 ng/mL) was “BLQ”. For the same molecule, the “Plasma concentration of C(XX)” value ([2]; 10 mg/kg oral C(XX), 6 h, per animal, BLQ <0.25 ng/mL) was “BLQ”, the “Plasma concentration of C(XX)” value ([2]; 10 mg/kg oral C(XX), 8 h, per animal, BLQ <0.25 ng/mL) was “BLQ” and the “Plasma concentration of psilocin” value ([2]; 10 mg/kg oral C(XX), 24 h, individual animals) was “BLQ”. The “Plasma concentration of C(XX)” value ([2]; 10 mg/kg oral C(XX), 24 h, per animal, BLQ <0.25 ng/mL) was “No Peak”, the “AUC0-tlast/Dose of C(XX) in plasma” value [2, 3] was 0.565 kg·ng·h/mL/mg and 0.499 kg·ng·h/mL/mg and 0.916 kg·ng·h/mL/mg and the “Cmax of C(XX) in plasma” value [2, 3] was 2.99 ng/mL and 9.12 ng/mL and 10.3 ng/mL. For the same molecule, the “Cmax/Dose of C(XX) in plasma” value [2, 3] was 0.299 kg·ng/mL/mg and 0.912 kg·ng/mL/mg and 1.03 kg·ng/mL/mg, the “MRT0-inf of C(XX) in plasma” value [2, 3] was 48 min and 214 min and the “F(%) of C(XX)” value ([2]; 10 mg/kg oral C(XX), individual animals, AUC0-tlast used, might be under-estimated) was 1.07% and 0.941% and 1.73%. The “Apparent t1/2 of C(XX) in plasma” value ([2]; 10 mg/kg oral C(XX), individual animals, M60 estimate may not be accurate) was 32 min and 340 min, the “AUC0-tlast/Dose of C(XX) in plasma” value ([2]; 10 mg/kg oral C(XX), mean ± SD) was 0.660 ± 0.224 kg·ng·h/mL/mg and the “Cmax/Dose of C(XX) in plasma” value ([2]; 10 mg/kg oral C(XX), mean ± SD) was 0.747 ± 0.392 kg·ng/mL/mg. The “F(%) of C(XX)” value ([2]; 10 mg/kg oral C(XX), mean ± SD, AUC0-tlast used) was 1.24 ± 0.423%, the AUC0-inf/Dose [2, 4] was 53.0 ± 8.26 kg·ng·h/mL/mg and the AUC0-tlast/Dose [2, 4] was 52.8 ± 8.30 kg·ng·h/mL/mg. The AUC0-inf/Dose [2, 5] was 48.3 kg·ng·h/mL/mg and 62.5 kg·ng·h/mL/mg and 48.1 kg·ng·h/mL/mg, the AUC0-tlast [2, 5] was 48.0 ng·h/mL and the AUC0-tlast/Dose [2, 5] was 48.1 kg·ng·h/mL/mg and 62.4 kg·ng·h/mL/mg and 48.0 kg·ng·h/mL/mg. The AUC(0-inf) [2, 5] was 48.1 ng·h/mL, the “Apparent t1/2” value [2, 5] was 32.2 min and the C0 [2, 5] was 139 ng/mL. For the same molecule, the CL [2, 5] was 346.28 mL/min/kg, the Vss [2, 5] was 8.913 L/kg and the Cmax/Dose ([2]; C(XX) in plasma, 1 mg/kg oral C(XX), Mean ± SD) was 0.620 ± 0.0996 kg·ng/mL/mg. For the same molecule, the Cmax/Dose [2, 6] was 0.702 kg·ng/mL/mg and 0.509 kg·ng/mL/mg and 0.648 kg·ng/mL/mg, the Tmax [2, 6] was 30 min and the AUC0-tlast/Dose [2, 7] was 0.458 ± 0.0457 kg·ng·h/mL/mg. It also gave a Cmax/Dose [2, 7] of 0.571 ± 0.0734 kg·ng/mL/mg, a Tmax ([2]; C(XX) in plasma, 3 mg/kg oral C(XX), per animal) of 15 min and an AUC0-inf/Dose [2, 8] of 0.510 kg·ng·h/mL/mg. For the same molecule, the AUC0-tlast [2, 8] was 1.42 ng·h/mL, the AUC0-tlast/Dose [2, 8] was 0.406 kg·ng·h/mL/mg and 0.494 kg·ng·h/mL/mg and 0.474 kg·ng·h/mL/mg and the Cmax/Dose [2, 8] was 0.497 kg·ng/mL/mg and 0.573 kg·ng/mL/mg and 0.643 kg·ng/mL/mg. The MRT0-inf [2, 8] was 49.4 min, the F ([2]; 3 mg/kg oral C(XX), Mean ± SD) was 0.953 ± 0.132% and the F ([2]; 3 mg/kg oral C(XX), per animal, 3 mg/kg) was 0.816% and 1.08%. It also gave a concentration at 5 min [2, 9] of 122 ± 26.1 ng/mL, a concentration at 5 min [2, 10] of 109 ng/mL and a concentration at 0.25 h [2, 9] of 70.5 ± 12.7 ng/mL. For the same molecule, the concentration at 0.25 h [2, 10] was 66.5 ng/mL, the concentration at 0.5 h [2, 9] was 32 ± 5.9 ng/mL and the concentration at 0.5 h [2, 10] was 26.1 ng/mL. The concentration at 1 h [2, 9] was 8.43 ± 0.438 ng/mL, the concentration at 1 h [2, 10] was 8.93 ng/mL and the concentration at 2 h ([2]; male, C57Bl/6, mouse, plasma, 1 mg/kg, 1 mg/kg i.v. C(XX), 2 h, Mean ± SD) was 1.05 ± 0.0871 ng/mL. For the same molecule, the concentration at 2 h ([2]; male, C57Bl/6, mouse, plasma, 1 mg/kg, 1 mg/kg i.v. C(XX), 2 h, per animal, BLQ <0.25 ng/mL) was 0.968 ng/mL, the concentration at 4 h ([2]; male, C57Bl/6, mouse, plasma, 1 mg/kg, 1 mg/kg i.v. C(XX), 4 h, Mean ± SD) was 0.181 ± 0.0663 ng/mL and the concentration at 4 h ([2]; male, C57Bl/6, mouse, plasma, 1 mg/kg, 1 mg/kg i.v. C(XX), 4 h, per animal, BLQ <0.25 ng/mL) was 0.257 ng/mL. It also gave a half-life ([2]; male, C57Bl/6, mouse, plasma, iv, 1 mg/kg, 1 mg/kg i.v. C(XX), mean ± SD, read-out: Apparent t1/2 of C(XX) in plasma (converted)) of 33.8 min.
